US20130237550A1, “ARYLVINYLAZACYCLOALKANE COMPOUNDS FOR CONSTIPATION” (TARGACEPT, INC., priority 2010, published 2013)

Tests used:
[1] = system: Taxol®-induced neuropathy; test: Taxol-induced (chemotherapy induced) neuropathy model; assay type: in vivo
[2] = system: rat Streptozotocin-induced diabetic neuropathy model; test: Streptozotocin-induced diabetic neuropathy (allodynia) model; assay type: in vivo; settings: STZ rat; for pain sensitivity (allodynia testing of the hindpaw): Week 6, versus vehicle-treated animals
Text: Preclinically, in two animal models of neuropathic pain, repeat administration of Compound A produced significant analgesia. […] With reference to WO 08/157,365, the rat Streptozotocin-induced diabetic neuropathy model is a clinically relevant model of diabetic neuropathy, which replicates elements of the human situation diabetic condition such as high glucose levels, neuropathic pain in the extremities, and generally poor health.

[3] = Single (SRD) and multiple rising dose (MRD) studies in normal healthy subjects; assay type: in vivo, human; settings: oral; human plasma; read-out: systemic (plasma) half-life
Protocol: (§1) In the MRD study, following doses 10 mg administered 4 times daily, nausea and vomiting typically occurred within 30 min of dosing—prior to significant systemic absorption. Diarrhea was typically observed more than 5 hours following dosing, when systemic concentrations were approximately 20% of Cmax values. […] Such pharmacodynamic GI motility responses appear to correlate primarily with local effects (possibly agonism of α3β4 receptors located on enterochromaffin cells) rather than systemic plasma concentrations.

normal healthy subjects = test: as above; assay type: in vivo, human
Protocol: as §1

[4] = target: α4β2 nueronal nicotinic receptors (Homo sapiens, UniProt P17787+P43681); test: Agonism at α4β2 neuronal nicotinic receptors (statement)
Chain of α4β2 nueronal nicotinic receptors (P43681 29-627 limits assumed): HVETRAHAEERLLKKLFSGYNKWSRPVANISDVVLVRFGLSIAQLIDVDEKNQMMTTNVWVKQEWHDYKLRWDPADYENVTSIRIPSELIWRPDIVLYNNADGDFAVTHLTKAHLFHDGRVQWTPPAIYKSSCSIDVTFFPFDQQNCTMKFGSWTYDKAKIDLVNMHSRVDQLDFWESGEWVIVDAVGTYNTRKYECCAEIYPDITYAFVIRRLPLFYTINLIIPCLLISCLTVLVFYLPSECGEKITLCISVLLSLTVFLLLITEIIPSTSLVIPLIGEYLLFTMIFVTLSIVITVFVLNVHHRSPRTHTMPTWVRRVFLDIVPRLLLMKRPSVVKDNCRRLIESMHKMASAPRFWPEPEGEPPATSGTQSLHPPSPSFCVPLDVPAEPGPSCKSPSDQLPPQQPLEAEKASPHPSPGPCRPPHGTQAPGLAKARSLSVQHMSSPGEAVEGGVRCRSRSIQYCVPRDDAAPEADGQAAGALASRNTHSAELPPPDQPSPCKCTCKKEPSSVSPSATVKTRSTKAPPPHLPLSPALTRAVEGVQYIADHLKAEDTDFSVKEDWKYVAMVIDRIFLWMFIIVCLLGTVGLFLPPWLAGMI
Chain of α4β2 nueronal nicotinic receptors (P17787 26-502): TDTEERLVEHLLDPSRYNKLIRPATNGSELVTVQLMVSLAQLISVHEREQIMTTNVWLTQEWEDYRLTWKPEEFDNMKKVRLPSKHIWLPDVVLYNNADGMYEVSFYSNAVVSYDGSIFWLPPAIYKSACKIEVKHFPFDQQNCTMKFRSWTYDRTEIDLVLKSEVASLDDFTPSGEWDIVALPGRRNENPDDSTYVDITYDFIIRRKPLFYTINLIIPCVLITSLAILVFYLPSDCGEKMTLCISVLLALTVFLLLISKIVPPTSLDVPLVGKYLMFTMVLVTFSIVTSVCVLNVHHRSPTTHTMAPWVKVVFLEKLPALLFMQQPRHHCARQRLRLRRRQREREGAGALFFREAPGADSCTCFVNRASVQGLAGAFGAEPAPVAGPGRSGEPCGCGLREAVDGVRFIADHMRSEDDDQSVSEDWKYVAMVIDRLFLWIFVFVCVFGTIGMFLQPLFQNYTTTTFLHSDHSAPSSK

[5] = target: α3β4 nueronal nicotinic receptors (Homo sapiens, UniProt P30926+P32297); test: Agonism at α3β4 neuronal nicotinic receptors (statement)
Chain of α3β4 nueronal nicotinic receptors (P32297 32-505): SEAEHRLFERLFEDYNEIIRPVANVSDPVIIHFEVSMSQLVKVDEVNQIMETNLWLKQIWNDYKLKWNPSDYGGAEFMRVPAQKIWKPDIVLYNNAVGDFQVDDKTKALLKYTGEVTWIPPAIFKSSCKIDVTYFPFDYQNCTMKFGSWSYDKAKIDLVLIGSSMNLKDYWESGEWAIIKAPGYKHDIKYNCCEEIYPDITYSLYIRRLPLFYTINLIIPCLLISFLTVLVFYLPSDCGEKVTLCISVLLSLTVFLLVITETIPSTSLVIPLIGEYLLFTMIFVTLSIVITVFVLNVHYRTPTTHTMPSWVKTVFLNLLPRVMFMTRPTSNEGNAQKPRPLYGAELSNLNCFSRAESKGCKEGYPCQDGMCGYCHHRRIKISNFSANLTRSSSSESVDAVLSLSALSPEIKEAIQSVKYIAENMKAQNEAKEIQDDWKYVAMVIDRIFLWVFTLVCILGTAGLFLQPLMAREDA
Chain of α3β4 nueronal nicotinic receptors (P30926 22-498): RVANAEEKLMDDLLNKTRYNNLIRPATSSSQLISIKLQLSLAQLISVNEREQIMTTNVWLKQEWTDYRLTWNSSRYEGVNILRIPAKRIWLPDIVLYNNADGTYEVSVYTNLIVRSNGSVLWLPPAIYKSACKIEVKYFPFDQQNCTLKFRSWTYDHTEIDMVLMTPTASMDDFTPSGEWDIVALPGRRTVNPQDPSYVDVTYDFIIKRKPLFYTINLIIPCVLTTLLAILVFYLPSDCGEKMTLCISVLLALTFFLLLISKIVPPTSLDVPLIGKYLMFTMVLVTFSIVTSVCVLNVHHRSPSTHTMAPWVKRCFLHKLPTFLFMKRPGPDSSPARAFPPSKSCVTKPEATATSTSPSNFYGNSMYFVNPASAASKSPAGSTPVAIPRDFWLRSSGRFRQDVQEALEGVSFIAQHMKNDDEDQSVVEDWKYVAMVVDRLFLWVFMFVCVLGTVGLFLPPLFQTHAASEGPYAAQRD

subjects with IBS-C = test: Randomized, double-blind, placebo controlled proof of principle study in IBS-C; assay type: in vivo, human
Protocol: A randomized, double-blind, placebo controlled, parallel group, proof of principle study to evaluate the safety, tolerability, and efficacy of Compound A in the treatment of Constipation-Predominant Irritable Bowel Syndrome was conducted.
The objectives of the study include the following: to assess the efficacy of Compound A in the treatment of Constipation Predominant Irritable Bowel Syndrome (IBS-C); and to assess the safety, tolerability and pharmacokinetic profile of Compound A in subjects with IBS-C when administered as a enteric coated capsule for a period of 28 days.
Subjects with constipation predominant irritable bowel syndrome (IBS-C) defined by: the ROME III criteria as: recurrent abdominal pain or discomfort at least 3 days per month, during the previous 3 months that is associated with 2 or more of the following: (1) relieved by defecation; (2) onset associated with a change in stool frequency; and/or (3) onset associated with a change in stool appearance.
Treatment included 5 mg daily (as Enteric Coated capsule) for 14 days followed by 5 mg BID for another 14 days. One endpoint includes global IBS symptom relief (7-point scale). Another endpoint includes bowel movement frequency, pain, bloating, straining, stool consistency, and frequency of rescue medication (laxative). Statistically, a was set to 0.1.

C(=C\[C@H]1CCNC1)/c1cncnc1 [Compound A, (R)-5-((E)-2-pyrrolidin-3-ylvinyl)pyrimidine]
analgesic effect (allodynia) ([1]; chronically administered): analgesic effect
blood glucose levels [2]: absence of any changes to blood glucose levels
pain sensitivity (allodynia testing of the hindpaw) [2]: significant reversal of this pain
half-life [3]: ≤ 1 h
time of diarrhea after dosing (normal healthy subjects; MRD study, 10 mg 4 times daily): more than 5 hours
time of nausea and vomiting after dosing (normal healthy subjects; MRD study, 10 mg 4 times daily): ≤ 30 min
systemic concentration when diarrhea observed (normal healthy subjects; MRD study, more than 5 hours following dosing): approximately 20 % of Cmax values
most commonly observed adverse events (normal healthy subjects; SRD and MRD studies, healthy subjects): nausea, vomiting and diarrhea
GI motility (normal healthy subjects; healthy human subjects): increase in GI motility
receptor activity type [4]: agonist
receptor activity type [5]: agonist
analgesic properties (subjects with IBS-C; IBS-C subjects): appears to lack analgesic properties
most commonly reported adverse events (subjects with IBS-C; IBS-C subjects, 28 days): headache or gastrointestinal
severity of adverse events (subjects with IBS-C; IBS-C subjects, 28 days): mild to moderate
tolerability (subjects with IBS-C; enteric coated capsule, 5 mg daily 14 days then 5 mg BID 14 days): generally well tolerated
spontaneous bowel movements (SBM) (subjects with IBS-C; versus placebo, maintained over at least 1 month): robust increases
SBM relative to Tegaserod, Lubiprostone and Linaclotide (subjects with IBS-C; week 4, FIG. 2, comparator data from literature): compares favorably

NCC1(CC(=O)O)CCCCC1 [Gabapentin, reference compound]
analgesic effect (allodynia) ([1]; acutely administered): analgesic effect

insulin: insulin-treated group in the STZ-rat model of diabetic neuropathy [reference compound]
blood glucose levels [2]: reduced blood glucose levels
pain sensitivity (allodynia testing of the hindpaw) [2]: did not have significant improvement in pain sensitivity
